{"source": "patent US10172899B2", "about": "“Composition for preventing, treating and improving of voiding dysfunction comprising extract from Piper longum L” (priority 2014, dated 2019)", "key": {"[1]": {"tested_on": "spontaneously hypertensive rat (SHR)", "test": "Urodynamic study in SHR under un-anesthesia", "type": "in vivo", "method": "12˜18 Week-old male SHRs were purchased from Charles River (Japan) and used. Day and night were controlled by a 12 hour cycle, and they were allowed to access to food and water freely. All the rats had to urinate at 3-5 cycles under a condition with no administration. The micturition parameters of rats under a condition with no administration were considered as control groups for urodynamic parameters, while the rats, to which the water extract of Piper Longum L. fruits prepared in Preparation Example 4.2 was directly administered into gastrointestinal tracts at 300 mg/kg via catheters coupled to stomachs, became experimental groups. As a positive control group, rats administered with tolterodine at 1 mg/kg were used. The Piper Longum L. water extract and tolterodine-dosing groups were each set by 6 rats.\nTo measure bladder pressure, bladder capacity, voiding volume and micturition interval, which are parameters for identifying improvement of voiding dysfunction, insertion of a bladder tube and a vessel for measuring an abdominal pressure was carried out in SHR models. For cystometry and injection of a physiological saline solution, a rat was incised in center of its lower abdomen 3 days before the day of measuring urodynamic parameters, and a cuffed polyethylene catheter with a cuff (PE-50, Becton Dickinson, Parsippany, USA) was fixed on its bladder dome with purse-string suture. In addition, a polyethylene catheter (PE-10, Becton Dickinson, Parsippany, USA) with a balloon for measuring abdominal pressure was fixed on the bladder, and another polyethylene catheter (PE-10, Becton Dickinson, Parsippany, USA) was fixed following being inserted in the gastrointestinal tract. The above catheters were passed through beneath skin, and then fixed on dorsal skin, the ends of which were closed by applying heat. An un-anesthetized rat being free was placed in a metabolic cage at 3 days after inserting a bladder tube and a vessel for measuring an abdominal pressure. The tube on the back of its neck was coupled to a microinjection pump (PHD22/2000 pump; Harvard Apparatus) and a pressure transducer (Research Grade Blood Pressure Transducer; Harvard Apparatus, Holliston, USA) with a T-tube, and then intravesical pressures were measured, with injecting the physiological saline solution at room temperate at a speed of 10 ml/hour. It is to measure intravesical pressures in the rat using a principle that when a predetermined volume of physiological saline solution is filled in the bladder, it is contracted to urinate. The abdominal pressure was measured by coupling the vessel for measuring abdominal pressure to the other pressure transducer. Also, to measure a voiding volume being an indicator of volume parameter, the voiding volume was measured from a urine amount collected in a urine collector cup (fluid collector) coupled to a force displacement transducer (Research Grade Isometric Transducer; Harvard Apparatus).\nBeginning to measure urodynamic parameters before administration of the extracts of Piper Longum L. and tolterodine, records of 3 to 5 stabilized micturition cycles were obtained. Then, the Piper Longum L. extracts and tolterodine were orally administered after decoupling the catheter. The catheters were again coupled thereto 20 minutes after oral administration of drugs, and voiding cycles and urodynamic study were carried out by having the rat to urinate 3 to 5 times. The average values of each parameter were measured by selecting the most representative 3 continuous cycles from voiding cycles measured before and after administration of drug.\nIn 3 repeated voiding cycles, a basal pressure (BP), which is an parameter of intravesical pressure, is the lowest pressure in cystometry, a threshold pressure (TP) is a pressure immediately before micturition contraction, and a micturition pressure (MP) means the maximum bladder pressure represented on voiding. […]"}, "muscarinic M2 receptor": {"target": "T1, muscarinic M2 receptor (Homo sapiens, UniProt P08172)", "T1 construct": "The human bladder smooth muscle Cells (hBdSMC) where the muscarinic M2 receptor had been expressed were purchased from Lonza; host or cells: human bladder smooth muscle cells (hBdSMC)", "T1 sequence (P08172 1-466)": "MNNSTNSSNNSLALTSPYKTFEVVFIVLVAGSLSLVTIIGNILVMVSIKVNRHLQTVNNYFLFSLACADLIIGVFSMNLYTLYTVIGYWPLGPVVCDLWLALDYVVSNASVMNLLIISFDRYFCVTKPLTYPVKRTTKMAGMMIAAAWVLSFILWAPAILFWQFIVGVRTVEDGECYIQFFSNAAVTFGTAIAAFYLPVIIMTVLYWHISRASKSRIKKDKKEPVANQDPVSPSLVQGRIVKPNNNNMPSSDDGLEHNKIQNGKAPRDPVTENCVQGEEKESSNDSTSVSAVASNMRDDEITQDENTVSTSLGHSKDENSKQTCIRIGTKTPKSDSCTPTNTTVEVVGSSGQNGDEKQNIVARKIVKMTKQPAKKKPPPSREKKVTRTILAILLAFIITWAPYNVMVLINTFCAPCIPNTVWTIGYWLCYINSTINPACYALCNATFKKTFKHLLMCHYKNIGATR", "test": "Relief of acetylcholine inhibition of forskolin-induced cAMP in human bladder smooth muscle cells (ELISA)", "type": "cell-based", "conditions": "10 μM, with Forskolin 10 μM + ACh 10 μM", "from_the_text": "It is known that when muscarinic M2 receptor, which is one of GPCR (G protein-coupled receptors), is coupled with acetylcholine being an agonist it inhibits activity of adenylyl cyclase enzyme to decrease a concentration of cAMP in cells, in which if the amount of cAMP increases, detrusor is relaxed, or otherwise if the amount of cAMP decreases, detrusor is contracted. Therefore, in confirming improvement of voiding dysfunction, it is important to identify an effect of being capable of increasing or decreasing the amount of cAMP. Accordingly, it was identified whether or not the extract of Piper Longum L. has activity of inhibiting muscarinic receptor that may inhibit decrease of a concentration of cAMP by acetylcholine, by pre-treating 95% by volume of aqueous solution of ethanol extract of Piper Longum L., treating it with acetylcholine which may serve as an activator of muscarinic M2 receptor to induce decrease of a concentration of cAMP, and treating it with Forskolin that may raise a concentration of cAMP in cells. More specifically, the procedure is as follows.\nThe human bladder smooth muscle Cells (hBdSMC) where the muscarinic M2 receptor had been expressed were purchased from Lonza (cambrex), and used. […] The amount of cAMP in cells was evaluated by measuring absorbance (408 nm) with an ELISA kit from the supernatant taken after centrifuging cells dissolved in 0.1M HCl."}, "[2]": {"tested_on": "CYP-induced cystitis rat model", "test": "Cystometry in CYP-induced cystitis model, ethanol and water extracts (Example 6.3)", "type": "in vivo", "conditions": "extracts 200 mg/kg, oxybutynin 0.3 mg/kg", "method": "(§1) To measure bladder pressure, bladder capacity and voiding volume, which are parameters for identifying improvement of voiding dysfunction, cyclophosphamide (150 mg/kg) was once intraperitoneally administered to rats excluding a normal control group to induce irritable bladder symptoms at 3 days before cystometry. From 3 Days before cystometry, a solvent (DMSO/10% Cremophor EL=1:9, vol/vol) had been administrated to a solvent control group, and 95% by volume of aqueous ethanol solution extract of Piper Longum L. fruits prepared in Preparation Example 4.1 had been administrated to an experimental group at 200 mg/kg. In addition, oxybutynin as a positive control group was injected via a caudal vein at 0.3 mg/kg on the day of experiment.\n(§2) For cystometry and injection of a physiological saline solution, instruments for cystometry and insertion of a bladder vessel were the same as in the above Example 5.2, and voiding volume and residual volume were recorded by sampling urine in a 1.5 ml tube and measuring its weight.\nThe basal pressure (BP), threshold pressure (TP), micturition pressure (MP) and micturition interval (MI) which are defined as in the above Example 5.2. […] A bladder capacity (BC) was calculated by combining the measured residual volume (RV) and voiding volume (VV) of the rat. […]"}, "[3]": {"tested_on": "CYP-induced cystitis rat model", "test": "Cystometry in CYP-induced cystitis model after dosing for 3 days (Example 6.2)", "type": "in vivo", "conditions": "extract 200 mg/kg from 3 days before cystometry; oxybutynin 0.3 mg/kg via caudal vein on the day", "method": "65 of specific pathogen-free (SPF) SD female rats were purchased from ORIENT (Korea) and used. Day and night were controlled by a 12 hour cycle, and they were allowed to access to food and water freely.\nas §1, §2\nThe basal pressure (BP), threshold pressure (TP), micturition pressure (MP) and micturition interval (MI) which are defined as in the above Example 5.2. In addition, a voiding volume being an parameter of volume parameter was defined by sampling urine in a 1.5 ml tube on the last voiding during urodynamic measurements and measuring its weight. After completing micturition, a residual volume was defined by placing the catheter inserted into bladder at the lower portion than the rat and measuring the weight of the obtained physiological saline. A bladder capacity (BC) was calculated by combining the measured residual volume (RV) and voiding volume (VV) of the rat.\nThe voiding cycles were measured for 120 minutes, and the average values of each parameter were calculated by selecting the most representative 5 continuous cycles among the measured voiding cycles."}, "[4]": {"conditions": "After Dosing, water extract 300 mg/kg, tolterodine 1 mg/kg"}, "[5]": {"conditions": "after vs before dosing, increase"}}, "data": [{"smiles": "Cc1ccc(O)c([C@H](CCN(C(C)C)C(C)C)c2ccccc2)c1", "note": "[Tolterodine, tolterodine]", "values": [{"measurement": "BC (bladder capacity)", "setting": "[1]; [4]", "result": "0.41 ± 0.03", "unit": "mL"}, {"measurement": "BP (basal pressure)", "setting": "[1]; [4]", "result": "4.8 ± 1.1", "unit": "cmH2O"}, {"measurement": "MI (micturition interval)", "setting": "[1]; [4]", "result": "365.4 ± 31.8", "unit": "s"}, {"measurement": "MP (micturition pressure)", "setting": "[1]; [4]", "result": "50.5 ± 1.7", "unit": "cmH2O"}, {"measurement": "RV (residual volume)", "setting": "[1]; [4]", "result": "0 ± 0", "unit": "mL"}, {"measurement": "TP (threshold pressure)", "setting": "[1]; [4]", "result": "18.1 ± 1.7", "unit": "cmH2O"}, {"measurement": "VV (voiding volume)", "setting": "[1]; [4]", "result": "0.41 ± 0.03", "unit": "mL"}, {"measurement": "BC, Percentage Change (%)", "setting": "[1]; [5]", "result": 36.7, "unit": "% ↑"}, {"measurement": "MI, Percentage Change (%)", "setting": "[1]; [5]", "result": 46.4, "unit": "% ↑"}, {"measurement": "VV, Percentage Change (%)", "setting": "[1]; [5]", "result": 36.7, "unit": "% ↑"}]}, {"smiles": "CCN(CC)CC#CCOC(=O)C(O)(c1ccccc1)C1CCCCC1", "note": "(stereo not drawn) [Oxybutynin, oxybutynin]", "values": [{"measurement": "cAMP", "setting": "muscarinic M2 receptor", "result": 28.21, "unit": "pmol/mL"}, {"measurement": "cAMP, % of forskolin", "setting": "muscarinic M2 receptor", "result": 91.39, "unit": "%"}, {"measurement": "MI (micturition interval)", "setting": "[2]", "result": "248.50 ± 144.43", "unit": "s"}, {"measurement": "VV (voiding volume)", "setting": "[2]", "result": "0.24 ± 0.15", "unit": "mL"}, {"measurement": "BC (bladder capacity)", "setting": "[3]", "result": "0.46 ± 0.14", "unit": "mL"}, {"measurement": "BP (basal pressure)", "setting": "[3]", "result": "9.7 ± 3.1", "unit": "cm H2O"}, {"measurement": "MI (micturition interval)", "setting": "[3]", "result": "221.54 ± 75.20", "unit": "s"}, {"measurement": "MP (micturition pressure)", "setting": "[3]", "result": "29.2 ± 7.9", "unit": "cm H2O"}, {"measurement": "RV (residual volume)", "setting": "[3]", "result": "0.30 ± 0.13", "unit": "mL"}, {"measurement": "TP (threshold pressure)", "setting": "[3]", "result": "17.6 ± 4.3", "unit": "cm H2O"}, {"measurement": "VV (voiding volume)", "setting": "[3]", "result": "0.16 ± 0.08", "unit": "mL"}]}]}
